Results taken from publication PMC7662321, “Andrographolide and Its 14-Aryloxy Analogues Inhibit Zika and Dengue Virus Infection” (Molecules, 2020).
Like-named read-outs stand apart in the source and are kept apart here.

Key:
[1] = system: DENV 2; assay: DENV 2 viral production in HEK293T/17 cells by standard plaque assay; type: cell-based, dengue virus; conditions: for Selective Index (SI): DENV, CC50 and EC50 in HEK293T/17 cells; for EC50: Dengue virus, read-out: EC50 against DENV 2 infection; for DENV 2 viral production, concentration dependence: HEK293T/17, MOI 5, 1 to 100 µM
Method: The effects of the compounds on DENV-2 infection were evaluated using HEK293T/17 as host cells at MOI of 5. The cells were infected with DENV 2 for 2 h and then the cells were incubated with the compounds at non-cytotoxic (or morphology altering) concentrations of 10 and 25 μM of ZAD-1 and ZAD-3, or 25 and 50 μM of ZAD-2, or 50 and 75 μM of andrographolide or 0.1% DMSO vehicle control. After 24 h of treatment, cells were harvested for determination of the percentage of infection by flow cytometry, while the culture supernatants were collected to determine the viral production.
(§1) Thus, the EC50 values of ZAD-1 and andrographolide were determined against ZIKV and DENV 2. For ZIKV, A549 cells were infected with ZIKV at MOI 5 and after 2 h of infection, the cells were incubated with ZAD-1 or andrographolide at a range of concentrations (1 to 100 µM) for 24 h, after which the supernatants were collected for determination of EC50 values by standard plaque assay. Both ZAD-1 and andrographolide reduced viral production in a dose-dependent manner (Figure 4A). […] For DENV 2, HEK293T/17 cells were infected with DENV 2 at MOI 5 for 2 h and followed by incubation with ZAD-1 or andrographolide at a range of concentrations (1 to 100 µM) for 24 h. […] The EC50 value for andrographolide in DENV infection is consistent with our previous study undertaken in HepG2 and HeLa cells with the same virus.
(§2) DENV 2 (strain 16681) and ZIKV (strain SV0010/15) virus stocks were propagated in C6/36 cells previously described, and virus titers were determined by standard plaque assay as described previously using Vero cells for ZIKV and LLC-MK2 cells for DENV.
(§3) HEK293T/17 or A549 cells were cultured in six-well plates under standard conditions until the cells reached 80% confluence. HEK293T/17 cells were infected with DENV 2, while A549 cells were infected with ZIKV Thai strain at MOI 5 for 2 h at 37 °C and 5% CO2 in culture medium without FBS. Mock infection was undertaken in parallel. After the infection period, the medium was removed and replaced with complete medium (including FBS) containing 0.1% DMSO (no treatment control) or the appropriate concentration of each compound and cells were again incubated under standard conditions. At 24 h post-treatment, cells were harvested for determination of effects of compounds on percentage of infection and supernatant was collected for determination of viral productivity. All experiments were undertaken independently in triplicate with duplicate plaque assay.

[2] = system: ZIKV; assay: ZIKV viral production in A549 cells by standard plaque assay; type: cell-based, Zika virus; conditions: for ZIKV viral production, concentration dependence: A549, MOI 5, 1 to 100 µM; for Selective Index (SI): ZIKV, CC50 and EC50 in A549 cells; for EC50: Zika virus, A549 cells, MOI 5, 24 h treatment post-infection, plaque assay, read-out: EC50 against ZIKV infection
Method: To confirm the effects of andrographolide and the andrographolide analogues on ZIKV infection, A549 cells were infected with ZIKV at MOI of 5 for 2 h, and subsequently treated with the compounds at concentrations of 10 and 25 μM or with vehicle for 24 h. The cells were harvested for determination of the percentage of infection by flow cytometry, while the supernatants were collected for determination of viral titer by standard plaque assay.
as §1, §2, §3

[3] = system: TKT; assay: 2D-PAGE proteomic analysis of treated A549 cells, TKT spot; type: cell-based, human; conditions: A549, 25 µM, 24 h
Method: (§4) A549 cells were therefore treated with either vehicle (0.025% DMSO), or with 25 μM of andrographolide or ZAD-1, and at 24 h post-treatment, proteins were prepared and subjected to two-dimension polyacrylamide gel electrophoresis (2D-PAGE). The experiment was undertaken independently in triplicate and representative gels are shown Figure 5, with all replicates being shown in Supplementary Figure S12. […] All of these protein spots were cut from the gels and then subjected to in-gel tryptic digestion followed by mass spectrometry. MASCOT (Matrix Science Inc., Boston, MA, USA) search of the resultant masses identified 4 proteins (Table 3), namely heat shock protein 70 kDa 1A (HSPA1A), phosphoglycerate kinase 1 (PGK1), transketolase (TKT) and nuclear transport protein of GTP-binding nuclear protein Ran (Ran).
(§5) 2D-PAGE and mass spectroscopic identification of differentially expressed spots was undertaken essentially as previously described. […] Image data were analyzed using Image Master™ 2D Platinum software version 7.0 (GenBio, Geneva, Switzerland). Each spot was evaluated on intensity, volume and area. […] After tryptic in-gel digestion, peptide masses were determined by LC-MS/MS using SYNAPT high definition MS (HDMS) (Waters Corp., Milford, MA, USA).

[4] = system: PGK1; assay: 2D-PAGE proteomic analysis of treated A549 cells, PGK1 spot; type: cell-based, human; conditions: A549, 25 µM, 24 h
Method: as §4, §5

Row | SMILES | Selective Index (SI) [1] | EC50 ([1]; HEK293T/17, 24 h) | DENV 2 viral production, concentration dependence ([1]; 24 h) | ZIKV viral production, concentration dependence ([2]; 24 h) | Selective Index (SI) [2] | EC50 [2] | Intensity Level, spot 2 TKT [3] | Intensity Level, spot 3 PGK1 [4] | EC50 ([1]; HEK293T/17 cells, MOI 5, 24 h treatment post-infection, plaque assay) | DENV 2 viral production, comparison among compounds ([1]; HEK293T/17, MOI 5, 25 µM, 24 h) | inhibitory effect on ZIKV infection, comparison among compounds ([2]; A549, MOI 5, 25 µM, 24 h)
1 | C=C1CC[C@@H]2[C@](C)(CO)[C@H](O)CC[C@@]2(C)[C@@H]1C/C=C1/C(=O)OC[C@H]1O [Andrographolide] | 8.4 | 35.2 ± 2.5 µM | dose-dependent reductions | dose-dependent | 6.6 | 31.8 ± 3.5 µM | 1452.51 | 1053.31 |  |  | 
2 | C=C1CC[C@@H]2[C@]3(C)COC(C)(C)O[C@@H]3CC[C@@]2(C)[C@@H]1C/C=C1/C(=O)OC[C@@H]1Oc1c(Cl)cc(Cl)c2ccc(C)nc12 [ZAD-1] | 6.6 |  | dose-dependent reductions | dose-dependent | 9.8 | 27.9 ± 1.7 µM | 523.514 | 2509.31 | 22.6 ± 1.8 µM | greatest reduction | greatest inhibitory effect
